Results taken from US20100113607A1, “Pharmaceutical Compositions” (priority 2000, published 2010).

Tested on: onychomycosis
Experiment: Topical treatment of a laser-perforated nail of a patient suffering from onychomycosis
Format: in vivo, human
Conditions: composition containing 10% terbinafine by total weight, administered to laser-perforated nail, once daily for 12 weeks
Method: A composition containing 10% terbinafine based on the total weight of the composition is prepared and administered to a laser-perforated nail of a patient suffering from onychomycosis once daily for 12 weeks.

For `CN(C/C=C/C#CC(C)(C)C)Cc1cccc2ccccc12` [terbinafine], the clinical effectiveness was “progress of clinical effectiveness is seen with growth of the healthy nail”.
